Residues, ends and D or L forms follow the SMILES beside them.
What was measured:
Type in all cases: in vivo, mouse (Balb/c)
Settings in all cases: BALF, serum or lung tissue extract
IL-1β = assay: Induction of IL-1β by the peptide itself
IL-4 = assay: Induction of IL-4 by the peptide itself
TNFα = assay: Induction of TNFα by the peptide itself
IL-5 = assay: Induction of IL-5 by the peptide itself

- induction of IL-1β (IL-1β): did not induce
- induction of IL-4 (IL-4): did not induce
- induction of TNFα (TNFα): did not induce
- induction of IL-5 (IL-5): did not induce
SMILES: CC[C@H](C)[C@H](NC(=O)[C@H](CCCNC(=N)N)NC(=O)[C@H](Cc1c[nH]c2ccccc12)NC(=O)[C@@H](NC(=O)[C@@H](NC(=O)[C@H](CC(C)C)NC(=O)[C@H](Cc1c[nH]c2ccccc12)NC(=O)[C@H](CCCNC(=N)N)NC(=O)[C@H](CCC(N)=O)NC(=O)[C@@H](N)C(C)C)[C@@H](C)CC)C(C)C)C(=O)N[C@@H](CCCNC(=N)N)C(=O)N[C@@H](CCCCN)C(N)=O [IDR 1002, VQRWLIVWRIRK-NH2] (H-VQRWLIVWRIRK-NH2)

Source: US20170158745A1, “IDR PEPTIDE COMPOSITIONS AND USE THEREOF FOR TREATMENT OF TH2-DYSREGULATED INFLAMMATORY CONDITIONS” (University of Manitoba, priority 2013, published 2017)
